As a reminder, the MIC is the lowest concentration found to suppress growth.

For 27 compounds, MIC results are on record in ChEMBL document CHEMBL4393657, “Tetrazole hybrids and their antifungal activities” (2019).

In brackets after ≈: the same amount, converted by molar mass.

Type in all cases: functional
In test [1] the test system is Candida tropicalis. Briefly: Antifungal activity against Candida tropicalis assessed as reduction in fungal cell growth incubated for 48 hrs by broth microdilution method. Background: In broth dilution the organism is exposed to a series of concentrations in liquid medium.
Test [2] has as its system Cryptococcus neoformans. Kind of test: Antifungal activity against Cryptococcus neoformans LA314 assessed as reduction in fungal cell growth incubated for 48 hrs by broth microdilution method. Particulars: LA314, 48 h.
Test [3] concerns Candida parapsilosis. Briefly: Antifungal activity against Candida parapsilosis ATCC 22019 assessed as reduction in fungal cell growth incubated for 48 hrs by broth microdilution method. Particulars: Lodderomyces parapsilosis, ATCC 22019, 48 h.
Test [4] has as its system Nakaseomyces glabratus. Kind of test: Antifungal activity against Candida glabrata assessed as reduction in fungal cell growth incubated for 48 hrs by broth microdilution method.
The test system of test [5] is Candida albicans. Briefly: Antifungal activity against Candida albicans assessed as reduction in fungal cell growth incubated for 48 hrs by broth microdilution method.
The test system of test [6] is Aspergillus niger. Briefly: Antifungal activity against Aspergillus niger assessed as reduction in fungal cell growth incubated for 72 hrs by broth microdilution method.
For test [7], the system named is Pichia kudriavzevii. Kind of test: Antifungal activity against Candida krusei assessed as reduction in fungal cell growth incubated for 48 hrs by broth microdilution method.

Take `OC(Cn1cncn1)(Cn1nnnc1CCN1CCN(c2ccccn2)CC1)c1ccc(F)cc1F` (centres undefined): the minimal inhibitory concentration (MIC) in test [1], in test [2], in test [3], in test [4], in test [5] and in test [6] was 0.5 to 16 µg/mL (≈ 1.01 to 32.2 µM) each time. Besides, in test [7], the minimal inhibitory concentration (MIC) lay in the range of 0.5 to 16 µg/mL (≈ 1.01 to 32.2 µM).
For the compound `COc1ccc(N2CCN(CCc3nnnn3[C@@H](C)[C@](O)(Cn3cncn3)c3ccc(F)cc3F)CC2)cc1`, the MIC in test [1], in test [2], in test [3], in test [4], in test [5] and in test [6] was 0.12 to 16 µg/mL (≈ 0.222 to 29.7 µM) each time. In addition, the MIC in test [7] was 0.12 to 16 µg/mL (≈ 0.222 to 29.7 µM).
With `COc1ccccc1N1CCN(CCc2nnnn2CC(O)(Cn2cncn2)c2ccc(F)cc2F)CC1` (centres undefined), the MIC in test [1], in test [2], in test [3], in test [4], in test [5] and in test [6] was 0.5 to 16 µg/mL (≈ 0.951 to 30.4 µM) each time. Further, the MIC in test [7] was in the range of 0.5 to 16 µg/mL (≈ 0.951 to 30.4 µM).
For the compound `OC(Cn1cncn1)(Cn1nnnc1CCN1CCN(c2ccc(Cc3ccccc3)cc2)CC1)c1ccc(F)cc1F` (centres undefined), the MIC in test [1], in test [2], in test [3], in test [4], in test [5] and in test [6] was 0.5 to 16 µg/mL (≈ 0.854 to 27.3 µM) in each case. Moreover, the MIC in test [7] was 0.5 to 16 µg/mL (≈ 0.854 to 27.3 µM).
Take `OC(Cn1cncn1)(Cn1nnnc1CCN1CCN(c2ccccc2)CC1)c1ccc(F)cc1F` (centres undefined): the MIC in test [1], in test [2], in test [3], in test [4], in test [5] and in test [6] was 0.5 to 16 µg/mL (≈ 1.01 to 32.3 µM) each time. Also, in test [7], the MIC was in the range of 0.5 to 16 µg/mL (≈ 1.01 to 32.3 µM).
On to `C[C@H](n1nnnc1CCN1CCN(c2ccc(F)cc2)CC1)[C@](O)(Cn1cncn1)c1ccc(F)cc1F`, for which the MIC in test [1], in test [2], in test [3], in test [4], in test [5] and in test [6] was 0.12 to 16 µg/mL (≈ 0.227 to 30.3 µM) throughout. Besides, in test [7], the MIC lay in the range of 0.12 to 16 µg/mL (≈ 0.227 to 30.3 µM).
For the compound `OC(Cn1cncn1)(Cn1nnnc1CCN1CCN(C(c2ccccc2)c2ccccc2)CC1)c1ccc(F)cc1F` (centres undefined), the MIC in test [1], in test [2], in test [3], in test [4], in test [5] and in test [6] was 0.5 to 16 µg/mL (≈ 0.854 to 27.3 µM) throughout. Further, the MIC in test [7] is 0.5 to 16 µg/mL (≈ 0.854 to 27.3 µM).
Turning to `C[C@H](n1nnc(CCN2CCN(c3cccc(Cl)c3)CC2)n1)[C@](O)(Cn1cncn1)c1ccc(F)cc1F`, the minimum inhibitory concentration (MIC) in test [1], in test [2], in test [3], in test [4], in test [5] and in test [6] was 0.25 to 16 µg/mL (≈ 0.46 to 29.4 µM) in each case. Besides, the MIC in test [7] was in the range of 0.25 to 16 µg/mL (≈ 0.46 to 29.4 µM).
For `CC(n1nnc(CCN2CCN(C(c3ccccc3)c3ccccc3)CC2)n1)C(O)(Cn1cncn1)c1ccc(F)cc1F` (centres undefined), the MIC in test [1], in test [2], in test [3], in test [4], in test [5] and in test [6] was 1 to 16 µg/mL (≈ 1.67 to 26.7 µM) in each case. Further, the MIC in test [7] fell in the range of 1 to 16 µg/mL (≈ 1.67 to 26.7 µM).
For the compound `C[C@H](n1nnnc1CCN1CCN(c2ccc([N+](=O)[O-])cc2)CC1)[C@](O)(Cn1cncn1)c1ccc(F)cc1F`, the MIC in test [1], in test [2], in test [3], in test [4], in test [5] and in test [6] was 0.12 to 16 µg/mL (≈ 0.216 to 28.9 µM) throughout. Also, the MIC in test [7] is 0.12 to 16 µg/mL (≈ 0.216 to 28.9 µM).
For `C[C@H](n1nnc(CCN2CCN(c3ccc(Cl)cc3)CC2)n1)[C@](O)(Cn1cncn1)c1ccc(F)cc1F`, the minimum inhibitory concentration (MIC) in test [1], in test [2], in test [3], in test [4], in test [5] and in test [6] was 0.25 to 16 µg/mL (≈ 0.46 to 29.4 µM) each time. In test [7], the minimum inhibitory concentration (MIC) fell in the range of 0.25 to 16 µg/mL (≈ 0.46 to 29.4 µM).
In the case of `CC(n1nnnc1CCN1CCN(c2cccc(Cl)c2)CC1)C(O)(Cn1cncn1)c1ccc(F)cc1F` (centres undefined), the MIC in test [1], in test [2], in test [3], in test [4], in test [5] and in test [6] was 0.5 to 16 µg/mL (≈ 0.919 to 29.4 µM) in each case. The MIC in test [7] was 0.5 to 16 µg/mL (≈ 0.919 to 29.4 µM).
For `O=[N+]([O-])c1ccc(N2CCN(CCc3nnnn3CC(O)(Cn3cncn3)c3ccc(F)cc3F)CC2)cc1` (centres undefined), the MIC in test [1], in test [2], in test [3], in test [4], in test [5] and in test [6] was 0.5 to 16 µg/mL (≈ 0.925 to 29.6 µM) throughout. Further, in test [7], the MIC fell in the range of 0.5 to 16 µg/mL (≈ 0.925 to 29.6 µM).
`CC(n1nnc(CCN2CCN(c3ccc(F)cc3)CC2)n1)C(O)(Cn1cncn1)c1ccc(F)cc1F` (centres undefined): the MIC in test [1], in test [2], in test [3], in test [4], in test [5] and in test [6] was 1 to 16 µg/mL (≈ 1.9 to 30.3 µM) each time. Moreover, in test [7], the MIC is 1 to 16 µg/mL (≈ 1.9 to 30.3 µM).
As for `CCCCOc1ccccc1N1CCN(CCc2nnn(C(C)C(O)(Cn3cncn3)c3ccc(F)cc3F)n2)CC1` (centres undefined), the MIC in test [1], in test [2], in test [3], in test [4], in test [5] and in test [6] was 1 to 16 µg/mL (≈ 1.72 to 27.5 µM) each time. The MIC in test [7] lay within 1 to 16 µg/mL (≈ 1.72 to 27.5 µM).
`OC(Cn1cncn1)(Cn1nnc(CCN2CCN(c3ccccc3Cl)CC2)n1)c1ccc(F)cc1F` (centres undefined): the MIC in test [1], in test [2], in test [3], in test [4], in test [5] and in test [6] was 1 to 16 µg/mL (≈ 1.89 to 30.2 µM) throughout. Further, the minimum inhibitory concentration (MIC) in test [7] lay within 1 to 16 µg/mL (≈ 1.89 to 30.2 µM).
`C[C@H](n1nnc(CCN2CCN(c3ccc(F)cc3)CC2)n1)[C@](O)(Cn1cncn1)c1ccc(F)cc1F`: the MIC in test [1], in test [2], in test [3], in test [4], in test [5] and in test [6] was 0.25 to 16 µg/mL (≈ 0.474 to 30.3 µM) in each case. For the same compound, the MIC in test [7] lay in the range of 0.25 to 16 µg/mL (≈ 0.474 to 30.3 µM).
As for `C[C@H](n1nnnc1CCN1CCN(c2ccc(Cl)cc2)CC1)[C@](O)(Cn1cncn1)c1ccc(F)cc1F`, the MIC in test [1], in test [2], in test [3], in test [4], in test [5] and in test [6] was 0.12 to 16 µg/mL (≈ 0.221 to 29.4 µM) throughout. The MIC in test [7] lay in the range of 0.12 to 16 µg/mL (≈ 0.221 to 29.4 µM).
`CC(n1nnnc1CCN1CCN(c2ccc(F)cc2)CC1)C(O)(Cn1cncn1)c1ccc(F)cc1F` (centres undefined): the MIC in test [1], in test [2], in test [3], in test [4], in test [5] and in test [6] was 0.5 to 16 µg/mL (≈ 0.948 to 30.3 µM) in each case. In addition, in test [7], the MIC lay in the range of 0.5 to 16 µg/mL (≈ 0.948 to 30.3 µM).
With `COc1ccc(N2CCN(CCc3nnn(C(C)C(O)(Cn4cncn4)c4ccc(F)cc4F)n3)CC2)cc1` (centres undefined), the MIC in test [1], in test [2], in test [3], in test [4], in test [5] and in test [6] was 1 to 16 µg/mL (≈ 1.85 to 29.7 µM) in each case. Further, the MIC in test [7] was in the range of 1 to 16 µg/mL (≈ 1.85 to 29.7 µM).
For `C[C@H](n1nnc(CCN2CCN(c3c(Cl)cccc3Cl)CC2)n1)[C@](O)(Cn1cncn1)c1ccc(F)cc1F`, the MIC in test [1], in test [2], in test [3], in test [4], in test [5] and in test [6] was 0.25 to 16 µg/mL (≈ 0.432 to 27.7 µM) each time. The MIC in test [7] was in the range of 0.25 to 16 µg/mL (≈ 0.432 to 27.7 µM).
With `C[C@H](n1nnc(CCN2CCN(Cc3ccccc3)CC2)n1)[C@](O)(Cn1cncn1)c1ccc(F)cc1F`, the MIC in test [1], in test [2], in test [3], in test [4], in test [5] and in test [6] was 0.25 to 16 µg/mL (≈ 0.477 to 30.6 µM) each time. For the same compound, in test [7], the MIC fell in the range of 0.25 to 16 µg/mL (≈ 0.477 to 30.6 µM).
As to `CCCCOc1ccccc1N1CCN(CCc2nnn(CC(O)(Cn3cncn3)c3ccc(F)cc3F)n2)CC1` (centres undefined), the MIC in test [1], in test [2], in test [3], in test [4], in test [5] and in test [6] was 1 to 16 µg/mL (≈ 1.76 to 28.2 µM) throughout. Also, the minimal inhibitory concentration (MIC) in test [7] was 1 to 16 µg/mL (≈ 1.76 to 28.2 µM).
For `OC(Cn1cncn1)(Cn1nnc(CCN2CCN(c3ccccn3)CC2)n1)c1ccc(F)cc1F` (centres undefined), the MIC in test [1], in test [2], in test [3], in test [4], in test [5] and in test [6] was 1 to 16 µg/mL (≈ 2.01 to 32.2 µM) throughout. In test [7], the MIC fell in the range of 1 to 16 µg/mL (≈ 2.01 to 32.2 µM).
For `COc1ccccc1N1CCN(CCc2nnn(CC(O)(Cn3cncn3)c3ccc(F)cc3F)n2)CC1` (centres undefined), the MIC in test [1], in test [2], in test [3], in test [4], in test [5] and in test [6] was 1 to 16 µg/mL (≈ 1.9 to 30.4 µM) in each case. For the same compound, the MIC in test [7] was in the range of 1 to 16 µg/mL (≈ 1.9 to 30.4 µM).
Take `COc1ccc(N2CCN(CCc3nnnn3CC(O)(Cn3cncn3)c3ccc(F)cc3F)CC2)cc1` (centres undefined): the MIC in test [1], in test [2], in test [3], in test [4], in test [5] and in test [6] was 0.5 to 16 µg/mL (≈ 0.951 to 30.4 µM) in each case. Further, in test [7], the minimum inhibitory concentration (MIC) was 0.5 to 16 µg/mL (≈ 0.951 to 30.4 µM).
In the case of `COc1ccc(N2CCN(CCc3nnnn3C(C)C(O)(Cn3cncn3)c3ccc(F)cc3F)CC2)cc1` (centres undefined), the MIC in test [1], in test [2], in test [3], in test [4], in test [5] and in test [6] was 0.5 to 16 µg/mL (≈ 0.927 to 29.7 µM) each time. The MIC in test [7] was 0.5 to 16 µg/mL (≈ 0.927 to 29.7 µM).
